Laboratory results taken from patent US7968548B2, “Melanocortin receptor-specific piperazine compounds with diamine groups” (Palatin Technologies, Inc., priority 2005, dated 2011).

Tests used:
MC3-R = target: T1, MC3-R (Homo sapiens, UniProt P41968); assay: Competitive inhibition binding assay using [I125]-NDP-α-MSH, HEK-293 membranes, recombinant hMC3-R; conditions: for inhibition at 1 µM: 1 μM compound
T1 construct: expressed in transfected cells; host or cells: HEK-293
Method: (§1) A competitive inhibition binding assay was performed using membrane homogenates prepared from HEK-293 cells that express recombinant hMC4-R, hMC3-R, or hMC5-R, and from B-16 mouse melanoma cells (containing endogenous MC1-R). In some instances, HEK-293 cells that express recombinant hMC1-R were employed. In the examples that follow, all MC3-R, MC4-R and MC5-R values are for human recombinant receptors. MC1-R values are for B-16 mouse melanoma cells, unless the heading is “hMC1-R”, in which case the value is for human recombinant MC1-R. Assays were performed in 96 well GF/B Millipore multiscreen filtration plates (MAFB NOB10) pre-coated with 0.5% bovine serum albumin (Fraction V). […] After incubation for 60 minutes at 37° C., the assay mixture was filtered and the membranes washed three times with ice-cold buffer. Filters were dried and counted in a gamma counter for bound radioactivity. […] Maximal specific binding (100%) was defined as the difference in radioactivity (cpm) bound to cell membranes in the absence and presence of 1 μM NDP-α-MSH. […] Each assay was conducted in triplicate and the actual mean values are described, with results less than 0% reported as 0%. Ki values for test compounds were determined using Graph-Pad Prism® curve-fitting software.

MC5-R = target: T2, MC5-R (Homo sapiens, UniProt P33032); assay: Competitive inhibition binding assay using [I125]-NDP-α-MSH, HEK-293 membranes, recombinant hMC5-R; conditions: for inhibition at 1 µM: 1 μM compound
T2 construct: expressed in transfected cells; host or cells: HEK-293
Method: as §1

hMC1-R = target: T3, hMC1-R (Homo sapiens, UniProt Q01726); assay: Competitive inhibition binding assay using [I125]-NDP-α-MSH, HEK-293 membranes, recombinant hMC1-R; conditions: human recombinant MC1-R; for inhibition at 1 µM: 1 μM compound
T3 construct: expressed in transfected cells; host or cells: HEK-293
Method: as §1

MC4-R = MC4-R (Homo sapiens, UniProt P32245); assay: Competitive inhibition binding assay using [I125]-NDP-α-MSH, HEK-293 membranes, recombinant hMC4-R; set-up: expressed in transfected cells; host or cells: HEK-293; conditions: for inhibition at 1 µM: 1 μM compound
Method: as §1

[1] = Mouse model IN feeding studies (body weight); type: in vivo; conditions: 20 hours
Method: Food intake and body weight after IN and IP dosing. Changes in food intake and body weight were evaluated for selected compounds. Male C57BL/6 mice were obtained from Jackson labs (Bar Harbor, Me.). Animals were individually housed in conventional plexiglass hanging cages and maintained on a controlled 12 hour on/off light cycle. Water and pelleted (Harlan Teklad 2018 18% Protein Rodent Diet) food was provided ad libitum. The mice were dosed IP (by intraperitoneal injection) after a 24 hour fast or IN (by intranasal administration) with vehicle or selected compounds (0.1-3 mg/kg, and in some cases up to 10 mg/kg). All animals were dosed once a day (or up to four consecutive days) at the start of the “lights off” period. The changes in food intake for the 4 hour and 20 hour period after dosing relative to control animals administered vehicle were determined. Body weights were determine 4 hours prior to dosing and 20 hours after dosing, and the change in body weight relative to control animals administered vehicle were determined.

T2 sequence (P33032 whole entry): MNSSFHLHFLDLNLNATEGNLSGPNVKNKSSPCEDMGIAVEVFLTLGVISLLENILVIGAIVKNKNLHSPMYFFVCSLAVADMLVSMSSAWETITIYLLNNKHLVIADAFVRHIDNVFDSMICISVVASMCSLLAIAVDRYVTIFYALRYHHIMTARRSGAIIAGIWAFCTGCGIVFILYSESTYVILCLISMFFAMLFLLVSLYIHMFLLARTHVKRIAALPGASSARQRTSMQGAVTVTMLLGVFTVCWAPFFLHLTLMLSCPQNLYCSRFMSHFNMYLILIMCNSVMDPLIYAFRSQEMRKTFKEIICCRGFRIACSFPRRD
Sequence of MC4-R (P32245 whole entry): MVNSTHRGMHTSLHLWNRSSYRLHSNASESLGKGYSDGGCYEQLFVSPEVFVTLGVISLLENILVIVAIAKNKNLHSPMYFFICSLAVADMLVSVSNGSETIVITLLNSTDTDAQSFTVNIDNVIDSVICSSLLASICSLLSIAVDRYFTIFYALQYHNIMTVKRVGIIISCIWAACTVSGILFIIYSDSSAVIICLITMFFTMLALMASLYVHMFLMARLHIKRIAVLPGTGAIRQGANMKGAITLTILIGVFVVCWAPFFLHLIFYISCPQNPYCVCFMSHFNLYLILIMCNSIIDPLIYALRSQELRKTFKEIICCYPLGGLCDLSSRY
T3 sequence (Q01726 whole entry): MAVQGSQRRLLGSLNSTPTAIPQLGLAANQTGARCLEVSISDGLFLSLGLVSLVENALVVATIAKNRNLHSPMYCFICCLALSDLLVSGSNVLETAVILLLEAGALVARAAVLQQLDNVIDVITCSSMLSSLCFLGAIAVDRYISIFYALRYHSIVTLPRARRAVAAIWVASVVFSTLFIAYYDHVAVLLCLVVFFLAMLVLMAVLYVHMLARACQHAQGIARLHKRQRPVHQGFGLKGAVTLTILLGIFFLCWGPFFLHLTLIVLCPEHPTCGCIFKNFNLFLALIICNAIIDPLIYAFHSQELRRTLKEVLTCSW
T1 sequence (P41968 whole entry): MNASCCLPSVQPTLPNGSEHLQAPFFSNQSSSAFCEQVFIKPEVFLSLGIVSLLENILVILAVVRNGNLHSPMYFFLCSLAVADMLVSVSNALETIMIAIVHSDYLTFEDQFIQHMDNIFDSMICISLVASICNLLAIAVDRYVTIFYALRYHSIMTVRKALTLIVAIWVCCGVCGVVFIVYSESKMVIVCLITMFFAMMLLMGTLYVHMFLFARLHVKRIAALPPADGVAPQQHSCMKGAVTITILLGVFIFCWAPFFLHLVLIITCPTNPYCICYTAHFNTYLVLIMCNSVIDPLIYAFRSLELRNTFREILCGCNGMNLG

CC(C)C[C@@H]1CN(C(=O)[C@H](N)Cc2ccc(Cl)cc2Cl)[C@@H](CCCNCCN)CN1C(=O)[C@H](N)Cc1ccc(Cl)cc1Cl [Example 12, (R)-2-Amino-1-{(2R,5S)-4-[(R)-2-amino-3-(2,4-dichloro-phenyl)-propionyl]-5-[3-(2-amino-ethylamino)-propyl]-2-isobutyl-piperazin-1-yl}-3-(2,4-dichloro-phenyl)-propan-1-one]
Ki (MC3-R): 574 nM
inhibition at 1 µM (MC3-R): 41%
inhibition at 1 µM (MC5-R): 55%
inhibition at 1 µM (hMC1-R): 23%
Ki (hMC1-R): 309 nM
Ki (MC4-R): 44 nM
inhibition at 1 µM (MC4-R): 89%
average decrease in body weight compared to control animals ([1]; 0.1 mg/kg): 0.7%
average decrease in body weight compared to control animals ([1]; 0.3 mg/kg): 3.1%

CC(C)C[C@@H]1CN(C(=O)[C@H](N)Cc2ccc3ccccc3c2)[C@@H](CCCNCCN)CN1C(=O)[C@H](N)Cc1ccc2ccccc2c1 [Example 13, (R)-2-Amino-1-[(2R,5S)-5-[3-(2-amino-ethylamino)-propyl]-4-((R)-2-amino-3-naphthalen-2-yl-propionyl)-2-isobutyl-piperazin-1-yl]-3-naphthalen-2-yl-propan-1-one]
Ki (MC3-R): 127 nM
inhibition at 1 µM (MC3-R): 79%
inhibition at 1 µM (MC5-R): 57%
inhibition at 1 µM (hMC1-R): 40%
Ki (hMC1-R): 135 nM
Ki (MC4-R): 13 nM
inhibition at 1 µM (MC4-R): 96%
average decrease in body weight compared to control animals ([1]; 0.1 mg/kg): 1%
average decrease in body weight compared to control animals ([1]; 0.3 mg/kg): 3%
average decrease in body weight compared to control animals ([1]; 1 mg/kg): 3.2%

CC(C)C[C@@H]1CN(C(=O)[C@H](N)Cc2ccc3ccccc3c2)[C@@H](CCCCNCCN)CN1C(=O)[C@H](N)Cc1ccc2ccccc2c1 [Example 20, (R)-2-Amino-1-[(2R,5S)-5[4-(2-amino-ethylamino)-butyl]-4-((R)-2-amino-3-naphthalen-2-yl-propionyl)-2-isobutyl-piperazin-1-yl]-3-naphthalen-2-yl-propan-1-one]
Ki (MC3-R): 321 nM
inhibition at 1 µM (MC3-R): 62%
Ki (MC5-R): 253 nM
inhibition at 1 µM (MC5-R): 49%
inhibition at 1 µM (hMC1-R): 68%
Ki (hMC1-R): 215 nM
Ki (MC4-R): 9 nM
inhibition at 1 µM (MC4-R): 99%
average decrease in body weight compared to control animals ([1]; 0.1 mg/kg): 1.2%
average decrease in body weight compared to control animals ([1]; 0.3 mg/kg): 3%

CC(C)C[C@@H]1CN(C(=O)[C@H](N)Cc2ccc(Cl)c(Cl)c2)[C@@H](CCCCNCCN)CN1C(=O)[C@H](N)Cc1ccc(Cl)c(Cl)c1 [Example 22, (R)-2-Amino-1-{(2R,5S)-4-[(R)-2-amino-3-(3,4-dichloro-phenyl)-propionyl]-5-[4-(2-amino-ethylamino)-butyl]-2-isobutyl-piperazin-1-yl}-3-(3,4-dichloro-phenyl)-propan-1-one]
Ki (MC3-R): 69 nM
Ki (MC5-R): 179 nM
Ki (hMC1-R): 116 nM
Ki (MC4-R): 4 nM
average decrease in body weight compared to control animals ([1]; 0.1 mg/kg): 0.6%
average decrease in body weight compared to control animals ([1]; 0.3 mg/kg): 4.9%

NCCNCCCC[C@H]1CN(C(=O)[C@H](N)Cc2ccc3ccccc3c2)[C@H](CC2CCCCC2)CN1C(=O)[C@H](N)Cc1ccc2ccccc2c1 [Example 23, (R)-2-Amino-1-[(2R,5S)-5-[4-(2-amino-ethylamino)-butyl]-4-((R)-2-amino-3-naphthalen-2-yl-propionyl)-2-cyclohexylmethyl-piperazin-1-yl]-3-naphthalen-2-yl-propan-1-one]
Ki (MC3-R): 435 nM
Ki (MC5-R): 103 nM
Ki (hMC1-R): 153 nM
Ki (MC4-R): 20 nM
average decrease in body weight compared to control animals ([1]; 0.1 mg/kg): 1.6%
average decrease in body weight compared to control animals ([1]; 0.3 mg/kg): 2.6%

NCCNCCCC[C@H]1CN(C(=O)[C@H](N)Cc2ccc(Cl)cc2Cl)[C@H](CC2CCCCC2)CN1C(=O)[C@H](N)Cc1ccc(Cl)cc1Cl [Example 24, (R)-2-Amino-1-{(2R,5S)-4-[(R)-2-amino-3-(2,4-dichloro-phenyl)-propionyl]-5-[4-(2-amino-ethylamino)-butyl]-2-cyclohexylmethyl-piperazin-1-yl}-3-(2,4-dichloro-phenyl)-propan-1-one]
Ki (MC3-R): 443 nM
Ki (MC5-R): 139 nM
Ki (hMC1-R): 270 nM
Ki (MC4-R): 17 nM

C[C@@H]1CN(C(=O)[C@H](N)Cc2ccc(Cl)cc2Cl)[C@@H](CCCNCCN)CN1C(=O)[C@H](N)Cc1ccc(Cl)cc1Cl [Example 25, (R)-2-Amino-1-{(2R,5S)-4-[(R)-2-amino-3-(2,4-dichloro-phenyl)-propionyl]-5-[3-(2-amino-ethylamino)-propyl]-2-methyl-piperazin-1-yl}-3-(2,4-dichloro-phenyl)-propan-1-one]
inhibition at 1 µM (MC3-R): 89%
inhibition at 1 µM (MC5-R): 93%
inhibition at 1 µM (hMC1-R): 67%
Ki (MC4-R): 41 nM
inhibition at 1 µM (MC4-R): 98%

Cc1ccc(C[C@@H](N)C(=O)N2C[C@@H](C)N(C(=O)[C@H](N)Cc3ccc(C)cc3C)C[C@@H]2CCCNCCN)c(C)c1 [Example 26, (R)-2-Amino-1-{(2R,5S)-4-[(R)-2-amino-3-(2,4-dimethyl-phenyl)-propionyl]-5-[3-(2-amino-ethylamino)-propyl]-2-methyl-piperazin-1-yl}-3-(2,4-dimethyl-phenyl)-propan-1-one]
inhibition at 1 µM (MC3-R): 57%
inhibition at 1 µM (MC5-R): 76%
inhibition at 1 µM (hMC1-R): 53%
Ki (MC4-R): 64 nM
inhibition at 1 µM (MC4-R): 96%

C[C@@H]1CN(C(=O)[C@H](N)Cc2ccc3ccccc3c2)[C@@H](CCCNCCN)CN1C(=O)[C@H](N)Cc1ccc2ccccc2c1 [Example 27, (R)-2-Amino-1-[(2R,5S)-5-[3-(2-amino-ethylamino)-propyl]-4-((R)-2-amino-3-naphthalen-2-yl-propionyl)-2-methyl-piperazin-1-yl]-3-naphthalen-2-yl-propan-1-one]
inhibition at 1 µM (MC3-R): 79%
inhibition at 1 µM (MC5-R): 73%
inhibition at 1 µM (hMC1-R): 62%
Ki (MC4-R): 42 nM
inhibition at 1 µM (MC4-R): 93%

C[C@@H]1CN(C(=O)[C@H](N)Cc2ccc(Cl)c(Cl)c2)[C@@H](CCCNCCN)CN1C(=O)[C@H](N)Cc1ccc(Cl)c(Cl)c1 [Example 28, (R)-2-Amino-1-{(2R,5S)-4-[(R)-2-amino-3-(3,4-dichloro-phenyl)-propionyl]-5-[3-(2-amino-ethylamino)-propyl]-2-methyl-piperazin-1-yl}-3-(3,4-dichloro-phenyl)-propan-1-one]
inhibition at 1 µM (MC3-R): 94%
inhibition at 1 µM (MC5-R): 84%
inhibition at 1 µM (hMC1-R): 77%
Ki (MC4-R): 19 nM
inhibition at 1 µM (MC4-R): 96%

CC(C)C[C@@H]1CN(C[C@H](N)Cc2ccc(Cl)cc2Cl)[C@@H](CCCNCCCN)CN1C(=O)Cc1ccc2ccccc2c1 [Example 29, 1-{(2R,5S)-4-[(R)-2-Amino-3-(2,4-dichloro-phenyl)-propyl]-5-[3-(3-amino-propylamino)-propyl]-2-isobutyl-piperazin-1-yl}-2-naphthalen-2-yl-ethanone]
inhibition at 1 µM (MC3-R): 65%
inhibition at 1 µM (MC5-R): 84%
inhibition at 1 µM (hMC1-R): 33%
inhibition at 1 µM (MC4-R): 91%

CC(C)C[C@@H]1CN(C[C@H](N)Cc2ccc(Cl)cc2Cl)[C@@H](CCCNCCCCN)CN1C(=O)Cc1ccc2ccccc2c1 [Example 30, 1-{(2R,5S)-5-[3-(4-Amino-butylamino)-propyl]-4-[(R)-2-amino-3-(2,4-dichloro-phenyl)-propyl]-2-isobutyl-piperazin-1-yl}-2-naphthalen-2-yl-ethanone]
inhibition at 1 µM (MC3-R): 65%
inhibition at 1 µM (MC5-R): 84%
inhibition at 1 µM (hMC1-R): 37%
inhibition at 1 µM (MC4-R): 91%

CC(C)C[C@@H]1CN(C[C@H](N)Cc2ccc(Cl)cc2Cl)[C@@H](CCCNCCCCCN)CN1C(=O)Cc1ccc2ccccc2c1 [Example 31, 1-{(2R,5S)-4-[(R)-2-Amino-3-(2,4-dichloro-phenyl)-propyl]-5-[3-(5-amino-pentylamino)-propyl]-2-isobutyl-piperazin-1-yl}-2-naphthalen-2-yl-ethanone]
inhibition at 1 µM (MC3-R): 59%
inhibition at 1 µM (MC5-R): 87%
inhibition at 1 µM (hMC1-R): 36%
inhibition at 1 µM (MC4-R): 91%

CC(C)C[C@@H]1CN(C[C@@H](Cc2ccc(Cl)cc2Cl)N(C)C)[C@@H](CCCN(C)CCN)CN1C(=O)Cc1ccc2ccccc2c1 [Example 32, 1-{(2R,5S)-5-{3-[(2-Amino-ethyl)-methyl-amino]-propyl}-4-[(R)-3-(2,4-dichloro-phenyl)-2-dimethylamino-propyl]-2-isobutyl-piperazin-1-yl}-2-naphthalen-2-yl-ethanone]
inhibition at 1 µM (MC3-R): 43%
inhibition at 1 µM (MC5-R): 65%
inhibition at 1 µM (hMC1-R): 25%
inhibition at 1 µM (MC4-R): 91%
